# Assay results from patent US8133849B2, “Herbicidal compounds” (Syngenta Limited, priority 2007, dated 2012).
# Columns and labels:
# Test in all cases: Example B2 herbicidal action, post-emergence, pots in glasshouse, damage score 0-10
# Type in all cases: in vivo
# Details in all cases: application post-emergence, rate 1000 g/ha, evaluated after 13 days
# Amaranthus retroflexus = tested on: Amaranthus retroflexus
# Procedure, shortened: (§1)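 Damage was assessed 13 days after a post-emergence spray given to 8-day-old pot seedlings. The spray was an aqueous solution from an acetone/water (50:50) formulation with 0.5% Tween 20. Plants grew in a glasshouse at 24/16° C, 14 h light, 65% humidity, watered twice daily.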
# Echinochloa crus-galli = tested on: Echinochloa crus-galli
# Procedure, shortened: as §1
# Ipomea hederaceae = tested on: Ipomea hederaceae
# Procedure, shortened: as §1
# Setaria faberi = tested on: Setaria faberi
# Procedure, shortened: as §1
# Solanum nigrum = tested on: Solanum nigrum
# Procedure, shortened: as §1
SMILES,AMARE damage score (10=total damage to plant; 0=no damage to plant) (Amaranthus retroflexus),ECHCG damage score (10=total damage to plant; 0=no damage to plant) (Echinochloa crus-galli),IPOHE damage score (10=total damage to plant; 0=no damage to plant) (Ipomea hederaceae),SETFA damage score (10=total damage to plant; 0=no damage to plant) (Setaria faberi),SOLNI damage score (10=total damage to plant; 0=no damage to plant) (Solanum nigrum)
CC(C)C(=O)OC1=C(c2c(C(F)(F)F)ccc(Cl)c2Cl)S(=O)(=O)N(CC(F)F)c2nccnc21 [Compound C134],8,5,3,4,8
CCSC(=O)OC1=C(c2c(C(F)(F)F)ccc(Cl)c2Cl)S(=O)(=O)N(CC(F)F)c2nccnc21 [Compound C135],8,7,8,10,10
"Cc1ccc(C2=C(OC(=O)C(C)C)c3nccnc3N(CC(F)F)S2(=O)=O)c(Cl)c1 [Compound C136, isobutyric acid 3-(2-chloro-4-methyl-phenyl)-1-(2,2-difluoro-ethyl)-2,2-dioxo-1,2-dihydro-2-λ-6-thia-1,5,8-triaza-naphthalen-4-yl ester]",3,0,7,2,8
COc1cccc(F)c1C1=C(OC(=O)C(C)C)c2nccnc2N(CC(F)F)S1(=O)=O [Compound C137],7,3,8,8,9
COc1ccc(F)c(C2=C(OC(=O)C(C)C)c3nccnc3N(CC(F)F)S2(=O)=O)c1 [Compound C138],0,1,2,0,7
"CCOC(=O)c1ccc(C(F)(F)F)nc1C1=C(OC(=O)SC)c2nccnc2N(CCC(F)F)S1(=O)=O [Compound C139, 2-[1-(3,3-difluoro-propyl)-4-methylsulfanylcarbonyloxy-2,2-dioxo-1,2-dihydro-2-λ-6-thia-1,5,8-triaza-naphthalen-3-yl]-6-trifluoromethyl-nicotinic acid ethyl ester]",0,0,1,3,0
C=C(C)CN1c2nccnc2C(OC(=O)C(C)(C)C)=C(c2cccc(Cl)c2Cl)S1(=O)=O [Compound C140],0,0,2,0,2
CC(C)(C)C(=O)OC1=C(c2ccc(I)cc2Cl)S(=O)(=O)N(CC(F)F)c2nccnc21 [Compound C141],7,2,7,0,8
CC(C)(C)C(=O)OC1=C(c2ccc(-c3ccc(Cl)cc3F)cc2Cl)S(=O)(=O)N(CC(F)F)c2nccnc21 [Compound C142],4,1,3,0,6
COc1ccc(Cl)c(C2=C(OC(=O)C(C)C)c3nccnc3N(CC(F)F)S2(=O)=O)c1F [Compound C143],1,4,8,0,10
COc1ccc(Cl)c(C2=C(OC(=O)C(C)(C)C)c3nccnc3N(CC(F)F)S2(=O)=O)c1F [Compound C144],0,0,7,0,4
CCSC(=O)OC1=C(c2c(Cl)ccc(OC)c2F)S(=O)(=O)N(CC(F)F)c2nccnc21 [Compound C145],0,5,8,2,8
Cc1ccc(C(F)(F)F)c(C2=C(OC(=O)C(C)C)c3nccnc3N(CC(F)F)S2(=O)=O)c1 [Compound C146],8,4,9,2,7
"CCOC(=O)OC1=C(c2cc(C)ccc2C(F)(F)F)S(=O)(=O)N(CC(F)F)c2nccnc21 [Compound C147, carbonic acid 1-(2,2-difluoro-ethyl)-3-(5-methyl-2-trifluoromethyl-phenyl)-2,2-dioxo-1,2-dihydro-2-λ-6-thia-1,5,8-triaza-naphthalen-4-yl ester ethyl ester]",1,2,9,3,9
Cc1ccc(C(F)(F)F)c(C2=C(OC(=O)C(C)(C)C)c3nccnc3N(CC(F)F)S2(=O)=O)c1 [Compound C148],7,3,8,2,9
CC(C)C(=O)OC1=C(c2cc(Cl)cc(C(F)(F)F)c2)S(=O)(=O)N(CC(F)F)c2nccnc21 [Compound C149],10,0,0,0,8
CCN1c2nccnc2C(O)=C(c2cccc(C(F)(F)F)c2)S1(=O)=O [Compound D3],10,1,1,0,1
CCN1c2nccnc2C(O)=C(c2c(F)ccc(Cl)c2Cl)S1(=O)=O [Compound D4],8,4,10,2,10
CCN1c2nccnc2C(O)=C(c2ccccc2OC(F)(F)F)S1(=O)=O [Compound D5],10,4,9,6,10
CCN1c2nccnc2C(O)=C(c2c(Cl)cccc2C(F)(F)F)S1(=O)=O [Compound D6],10,7,9,5,10
CCN1c2nccnc2C(O)=C(c2ccccc2SC(F)(F)F)S1(=O)=O [Compound D7],9,0,3,0,5
CCN1c2nccnc2C(O)=C(c2ccc(Cl)c(Cl)c2)S1(=O)=O [Compound D8],9,0,0,0,2
"O=S1(=O)C(c2c(F)ccc(Cl)c2Cl)=C(O)c2nccnc2N1CC(F)F [Compound D9, 3-(2,3-dichloro-6-fluoro-phenyl)-1-(2,2-difluoro-ethyl)-2,2-dioxo-1,2-dihydro-2-λ-6-thia-1,5,8-triaza-naphthalen-4-ol]",9,4,10,2,10
CCN1c2nccnc2C(O)=C(c2ccc(Cl)cc2C(F)(F)F)S1(=O)=O [Compound D10],9,4,9,2,10
